Data on 3 compounds can be found in patent publication US20110165115A1, “SYNERGISTIC ATTRACTANTS FOR PESTIFEROUS SOCIAL INSECTS” (STERLING INTERNATIONAL INC., priority 2010, published 2011).

The subject of one assay is V. consobrina.
Experiment: not given
Type of assay: in vivo, Vespula consobrina. The following applies: Exp 1; HIPV added to WHY attractant in the top chamber, or WHY alone. On the procedure:
(§1) Three field trapping experiments were carried out during late July to early August 2009, in residential and woody areas around Spokane, Wash., USA, using the newly marketed Rescue® W•H•Y traps (www.rescue.com). As used herein, the W•H•Y trap is a trap in accordance with the description of United States Patent Application Publication No. 2009/0151228. The W•H•Y trap has a top chamber and a bottom chamber. The top chamber is baited with two attractants—one of which is a solid contained in a vial (2-methyl-1-butanol) and the other a liquid mixed with water (acetic acid), herein referred to as the W•H•Y top attractant. The bottom chamber is baited with a liquid attractant (heptyl butyrate) poured onto a cotton pad, herein referred to as the W•H•Y bottom attractant. Separation of the top and bottom attractants (otherwise antagonistic to each other when released from the same chamber) in two chambers was a design feature of this trap and creates two focal attraction sources from one trap for different species of wasps, hornets, and yellowjackets. Traps were hung 1.5-2.0 m above the ground on either the fence or tree branches ca. 5 m apart within each trap line. For each trapping experiment, six sets of traps were deployed with their initial trap positions within each set being randomized. To minimize positional effects and obtain more replications, wasp collections and trap re-randomization were carried out when ≧10-20 wasps were caught in the best trap. Each replicate lasted several days depending on wasp flight activity. Captured wasps were removed from the traps and kept in the zip-bags before taking back to the laboratory for recording of the species, gender status, and catch. […]
(§2) Trap catch data were converted to proportion (P) of total captured wasps within each replicate. Data were then transformed by arcsin√P to meet the assumptions of normality and homogeneity of variances for ANOVA. Means were compared by ANOVA followed by the Ryan-Einot-Gabriel-Welsh (REGW) multiple Q test (SPSS 16.0 for Windows) at α=0.05.
Regarding `C=C/C(C)=C/CC=C(C)C` [Ocimene, cis-ocimene], the “Total Yellowjacket Catches V. consobrina” value turned out to be 0.

A further assay deals with P. dominulus. The assay can be described thus: Field trapping Experiment 1, Rescue W•H•Y traps. The format is in vivo, Polistes dominulus. The following applies: Exp 1; HIPV added to WHY attractant in the top chamber, or WHY alone. The method, then:
(§3) Three field trapping experiments were carried out during late July to early August 2009, in residential and woody areas around Spokane, Wash., USA, using the newly marketed Rescue® W•H•Y traps (www.rescue.com). As used herein, the W•H•Y trap is a trap in accordance with the description of United States Patent Application Publication No. 2009/0151228. The W•H•Y trap has a top chamber and a bottom chamber. The top chamber is baited with two attractants—one of which is a solid contained in a vial (2-methyl-1-butanol) and the other a liquid mixed with water (acetic acid), herein referred to as the W•H•Y top attractant. The bottom chamber is baited with a liquid attractant (heptyl butyrate) poured onto a cotton pad, herein referred to as the W•H•Y bottom attractant. Separation of the top and bottom attractants (otherwise antagonistic to each other when released from the same chamber) in two chambers was a design feature of this trap and creates two focal attraction sources from one trap for different species of wasps, hornets, and yellowjackets. Traps were hung 1.5-2.0 m above the ground on either the fence or tree branches ca. 5 m apart within each trap line. For each trapping experiment, six sets of traps were deployed with their initial trap positions within each set being randomized. To minimize positional effects and obtain more replications, wasp collections and trap re-randomization were carried out when ≧10-20 wasps were caught in the best trap. Each replicate lasted several days depending on wasp flight activity. Captured wasps were removed from the traps and kept in the zip-bags before taking back to the laboratory for recording of the species, gender status, and catch.
(§4) Experiment 3 (Aug. 5-13, 2009) was conducted to determine the potential behavioral activity of different doses of (E)-4,8-dimethyl-1,3,7-nonatriene alone. The individual (or different doses) HIPVs were loaded into either polyethylene bags or centrifuge tube type of dispensers, and released from the top of the W•H•Y trap chamber. W•H•Y trap attractants (both top and bottom or top only) alone and water (top chamber only) were included in the test as positive and blank controls, respectively. The dispenser types, loading and release rates of the tested semiochemicals are described in Tables 1, 2 and 3.
as §2
Turning to `C=C/C(C)=C/CC=C(C)C` [Ocimene, cis-ocimene], the “Total Paper Wasps P. dominulus” value was found to be 29.

Another assay relates to Polistes dominulus worker antennae. The assay can be described thus: GC-EAD of cherry branch aeration samples. The conditions noted are these: aeration of severely damaged cherry branches; at current release rates. The method, then:
Lapin cherry branches with severely damaged cherries and leaves and undamaged or slightly damaged branches were collected from a cherry orchard at Creston, Canada, on Jul. 29, 2009, and were transported to the Sterling International, Inc. lab (Spokane, Wash.) on the same day and kept at 4° C. before aerations. Headspace volatiles from the cherry branches (damaged or undamaged) were sampled by a battery operated pump and a high density polyacetate oven bag (48.2×59.6 cm Reynolds® Oven Bag; Richmond, Va., USA) enclosure with one activated charcoal filter tube in the air inlet, on Jul. 30, 2009. The volatiles in the enclosure were trapped on one Porapak Q tube (50/80 mesh; 30 mg in Teflon tube: 3 mm×35 mm) for 2.5 hr (airflow 300 ml/min) and extracted with 1 ml redistilled pentane. Aeration samples of the cherry branches (damaged or undamaged/slightly damaged) were injected (3 μl) splitless into a Varian CP-3800 GC equipped with a polar column (HP-INNOWax; 30 m×0.53 mm×1.0 μm film thickness; […] Helium was used as the carrier gas, and the injector and detector temperatures were 250° C. and 300° C., respectively. Column temperature was 50° C. for 1 min, rising to 240° C. at 10° C./min, and then held for 10 min. The outlet for the EAD was held in a humidified air stream flowing at 0.5 m/sec over the antennal preparation. EAD recordings were made using silver wire-glass capillary electrodes filled with Beadle-Ephrussi Ringer on freshly cut antennae. The antennal signals were stored and analyzed on a PC equipped with a serial IDAC interface box and the program EAD ver. 2.5 (Syntech, Hilversum, The Netherlands). […] (See FIG. 2.) The same chemicals were also tested on beneficial insect antennae from Chrysopa oculata, Myrmeleon crudelis, Podisus maculiventris, and Hippodarnia convergens. (See […] active peaks in the aeration samples were identified by GC-MS on an HP 6890 GC series coupled with an HP 5973 Mass Selective Detector using the same type of GC column and conditions as described above. Compounds were identified by comparison of retention times with those of authentic standards and with mass spectra of standards.
Take `C=C/C(C)=C/CC=C(C)C` [Ocimene, cis-ocimene]: the “EAD response of worker antennae” value is on record as “did not elicit significant EAD-responses”.

In a further assay the test system is yellowjackets. The assay can be described thus: Field trapping Experiment 1, top chamber catches. The format is in vivo. The conditions noted are these: Exp 1; HIPV combined with W•H•Y attractant (acetic acid and 2-methyl-1-butanol) in the top chamber. On the procedure:
as §3
Experiment 3 (Aug. 5-13, 2009) was conducted to determine the potential behavioral activity of different doses of (E)-4,8-dimethyl-1,3,7-nonatriene alone. The individual (or different doses) HIPVs were loaded into either polyethylene bags or centrifuge tube type of dispensers, and released from the top of the W•H•Y trap chamber. […]
On to `C=C/C(C)=C/CC=C(C)C` [Ocimene, cis-ocimene], for which the “effect on trap catches of yellowjackets in the top chambers” value was “significant synergistic effect”.

In another assay the test system is V. pensylvanica. The assay is described as follows: Field trapping Experiment 1, Rescue W•H•Y traps. The format is in vivo, Vespula pensylvanica. The conditions noted are these: Exp 1; HIPV added to WHY attractant in the top chamber, or WHY alone. On the procedure:
as §3, §4, §2
As for `C=C/C(C)=C/CC=C(C)C` [Ocimene, cis-ocimene], the “Total Yellowjacket Catches V. pensylvanica” value is 402.

Another assay relates to yellowjackets occurring in the Eastern United States, hornets and paper wasps.
Experiment: not given
The conditions noted are these: background; cited from earlier work.
On to `CCCCCCCOC(=O)CCC` [heptyl butyrate], for which the attraction result is reported as “ineffective”.

A further assay concerns D. arenaria. The assay is described as follows: Field trapping Experiment 1, Rescue W•H•Y traps. Type of assay: in vivo, Dolichovespula arenaria. The conditions noted are these: Exp 1; HIPV added to WHY attractant in the top chamber, or WHY alone. On the procedure: as §3
(§5) Experiment 1 (Jul. 22-30, 2009) tested ten synthetic HIPV candidates [(E)-2-hexenal, (Z)-3-hexen-1-ol, (Z)-3-hexenyl acetate, cis-ocimene, linalool, methyl salicylate, geranyl acetate, trans-β-caryophyllene, trans-β-farnesene and (E)-4,8-dimethyl-1,3,7-nonatriene], including several paper wasp EAD-active compounds (see FIG. 2 for details), to determine their potential synergistic effect on the Rescue® W•H•Y trap attractants to paper wasps, yellowjackets, and hornets. Experiment 2 (Aug. 5-13, 2009) tested behavioral responses of the paper wasps and yellowjackets to the Rescue® W•H•Y trap attractants (top attractants only) and its combination with (E)-4,8-dimethyl-1,3,7-nonatriene, one of the EAD-active and behaviorally significant HIPVs, in a dose-response fashion. Experiment 3 (Aug. 5-13, 2009) was conducted to determine the potential behavioral activity of different doses of (E)-4,8-dimethyl-1,3,7-nonatriene alone. The individual (or different doses) HIPVs were loaded into either polyethylene bags or centrifuge tube type of dispensers, and released from the top of the W•H•Y trap chamber. W•H•Y trap attractants (both top and bottom or top only) alone and water (top chamber only) were included in the test as positive and blank controls, respectively. The dispenser types, loading and release rates of the tested semiochemicals are described in Tables 1, 2 and 3.
as §2
Consider `C=C/C(C)=C/CC=C(C)C` [Ocimene, cis-ocimene], for which the “Total Yellowjacket Catches D. arenaria” value is on record as 11.

The next assay relates to V. vulgaris. The assay is described as follows: Field trapping Experiment 1, Rescue W•H•Y traps. Type of assay: in vivo, Vespula vulgaris. The following applies: Exp 1; HIPV added to WHY attractant in the top chamber, or WHY alone. The method, then:
as §3, §4, §2
For the compound `C=C/C(C)=C/CC=C(C)C` [Ocimene, cis-ocimene], the “Total Yellowjacket Catches V. vulgaris” value was 52.

In the next assay the test system is V. atropilosa.
Experiment: not given
The format is in vivo, Vespula atropilosa. The conditions noted are these: Exp 1; HIPV added to WHY attractant in the top chamber, or WHY alone. On the procedure: as §1, §2
Turning to `C=C/C(C)=C/CC=C(C)C` [Ocimene, cis-ocimene], the “Total Yellowjacket Catches V. atropilosa” value came to 2.

In a further assay the test system is V. pensylvanica.
Experiment: not given
The conditions noted are these: background; cited from earlier work.
In the case of `CC=CC=CCOC(=O)CCC` [2,4-hexadienyl butyrate], the attraction result was “powerfully attractive”.
As for `CCCCCCCOC(=O)CCC` [heptyl butyrate], the attraction result is given as “as attractive”.

Another assay deals with D. maculata. The assay can be described thus: Field trapping Experiment 1, Rescue W•H•Y traps. The conditions noted are these: Exp 1; HIPV added to WHY attractant in the top chamber, or WHY alone. Type of assay: in vivo, Dolichovespula maculata. The method, then:
as §3, §5, §2
With `C=C/C(C)=C/CC=C(C)C` [Ocimene, cis-ocimene], the “Total Yellowjacket Catches D. maculata” value was 17.

The next assay has as its system V. acadica. The assay is described as follows: Field trapping Experiment 1, Rescue W•H•Y traps. Type of assay: in vivo, Vespula acadica. The conditions noted are these: Exp 1; HIPV added to WHY attractant in the top chamber, or WHY alone. The method, then:
as §3, §4, §2
Turning to `C=C/C(C)=C/CC=C(C)C` [Ocimene, cis-ocimene], the “Total Yellowjacket Catches V. acadica” value is 0.

A further assay concerns P. aurifer. The assay can be described thus: Field trapping Experiment 1, Rescue W•H•Y traps. The format is in vivo, Polistes aurifer. The following applies: Exp 1; HIPV added to WHY attractant in the top chamber, or WHY alone. The method, then: as §3, §4, §2
In the case of `C=C/C(C)=C/CC=C(C)C` [Ocimene, cis-ocimene], the “Total Paper Wasps P. aurifer” value is given as 17.
